Assay results as given in paper PMC9103942, “A Tumor-Homing Peptide Platform Enhances Drug Solubility, Improves Blood–Brain Barrier Permeability and Targets Glioblastoma” (Cancers, 2022).

Tests used:
[1] = target: T1, recombinant dg-Bcan protein (Homo sapiens, UniProt Q96GW7); test: Octet binding kinetic analysis (steady state) to recombinant dg-Bcan; conditions: one site specific binding fit, Octet RED
T1 construct: purchased R&D Systems 4009-BC-050
T1 sequence (Q96GW7 23-911): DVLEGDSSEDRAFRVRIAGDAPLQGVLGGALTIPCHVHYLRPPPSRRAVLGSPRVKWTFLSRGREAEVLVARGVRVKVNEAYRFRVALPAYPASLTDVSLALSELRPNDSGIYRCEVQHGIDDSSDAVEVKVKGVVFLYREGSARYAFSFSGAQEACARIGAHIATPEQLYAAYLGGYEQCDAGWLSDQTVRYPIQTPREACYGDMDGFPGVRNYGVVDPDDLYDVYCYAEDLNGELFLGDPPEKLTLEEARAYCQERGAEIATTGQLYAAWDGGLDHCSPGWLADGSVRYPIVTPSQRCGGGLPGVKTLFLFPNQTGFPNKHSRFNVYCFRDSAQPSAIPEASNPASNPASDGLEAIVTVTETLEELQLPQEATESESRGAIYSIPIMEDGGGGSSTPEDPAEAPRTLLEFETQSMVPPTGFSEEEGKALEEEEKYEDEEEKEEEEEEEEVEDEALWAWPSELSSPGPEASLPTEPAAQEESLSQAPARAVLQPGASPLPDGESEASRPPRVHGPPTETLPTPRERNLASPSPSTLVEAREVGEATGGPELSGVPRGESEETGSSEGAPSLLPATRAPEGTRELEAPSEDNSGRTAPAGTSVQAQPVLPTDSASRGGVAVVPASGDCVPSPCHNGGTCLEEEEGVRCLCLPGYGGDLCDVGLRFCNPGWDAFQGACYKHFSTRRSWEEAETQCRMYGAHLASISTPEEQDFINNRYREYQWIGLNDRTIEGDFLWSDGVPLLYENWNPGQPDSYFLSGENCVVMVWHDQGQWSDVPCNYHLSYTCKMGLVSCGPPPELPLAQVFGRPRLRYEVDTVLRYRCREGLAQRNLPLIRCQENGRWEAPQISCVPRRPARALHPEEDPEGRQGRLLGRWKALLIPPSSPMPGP
Experimental: Figure 3 Cytotoxicity of BTP-7-CPT. (a) Western blot showing expression of dg-Bcan in patient-derived GBM-X6 cells, as well as in Bcan-overexpressing HEK cells (HEK-Bcan). (b) Binding kinetics analysis (steady-state) of BTP-7-CPT (red) and unmodified CPT (blue) to recombinant dg-Bcan protein using the ForteBio Octet system. Rmax (maximal response in response unit) and KD (dissociation constant) were calculated using a non-linear regression (one site specific binding) fit using the Graphpad Prism software. (c) Luminescent cell viability (CellTiter-Glo) of GBM-X6 cells treated with BTP-7-CPT (nwells = 3) for 72 h. (d) Luminescent cell viability (CellTiter-Glo) of GS401 recurrent GBM cells treated with BTP-7-CPT (nwells = 3) for 72 h. All IC50 values were measured through the non-linear ‘log(inhibitor) vs. response—variable slope (four parameters)’ fit. […] Statistical significance was calculated using a two-way ANOVA, Sidak’s multiple comparisons test (* p < 0.05, *** p < 0.001, **** p < 0.0001). […]
Infrared spectroscopy (IR). Infrared spectra (IR) were recorded on a Bruker Alpha II FTIR. […]
Then, biosensors were exposed to the analyte (peptide) in working buffer (ranging between 0– 10 µM BTP) for 300 s during the ‘association’ step. […] Binding affinity of each peptide was assessed through steady state analysis, where the response unit was plotted over peptide concentration. […]

[2] = Ex vivo serum stability assay, mouse serum; assay type: in vitro ADME; conditions: 25% mouse serum, over 12 h
Experimental: Mouse serum was obtained from 8–10-week-old athymic female mice. Mice were euthanized by CO2 asphyxiation with secondary decapitation to ensure death. An incision was made from the neck to the abdomen and the thorax was cut to expose the heart. An amount of 100 µL of heparin was then injected directly into the right atrium to prevent the blood from clotting. A cardiac puncture was performed by piercing the left ventricle with a 21G needle to remove 400–1000 µL of blood. Blood from five mice was collected and combined in a 10-mL centrifuge tube and centrifuged for 5 min at 500 rcf at 4 °C. The top layer containing the serum (opaque) was removed and stored at −20 °C.
To test for serum stability, a 10 mM stock of BTP-7-CPT and Scr-7-CPT was prepared in DMSO. Each compound (1.4 µL) was transferred into a microcentrifuge tube containing 200 µL of PBS with 25% mouse serum, or in PBS alone, and incubated at 37 °C (final concentration 70 μm). […] Samples containing the peptide were eluted with 10 µL of 70% acetonitrile in water containing 0.1% TFA into an LC-MS vial containing 20 µL of water with 0.1% TFA additive and analyzed via LC-MS. The amount of intact compound was determined through quantifying the ion count in the extracted ion chromatogram (EIC) using the MassHunter software. […]

[3] = Compound solubility in saline vs pure DMSO (LC-MS of supernatant); assay type: physicochemical; conditions: room temperature 5 min, centrifuged, LC-MS EIC
Experimental: Dried powder of each compound was first resuspended in pure DMSO to form a 10 mm stock. Each stock was then diluted in saline (0.9% NaCl) to form an aqueous solution of 100 µm (final DMSO 1% (v/v)) or 1.3 mM (final DMSO 10% (v/v)) of each compound. The samples were incubated at room temperature for 5 min, then centrifuged at 10,000 rcf for 10 min to pellet any precipitates. 5 µL of supernatant was diluted into LC-MS vials containing 100 µL of 50:50 water:acetonitrile with 0.1% TFA additive and analyzed by LC-MS. The presence of soluble compound in each supernatant was determined by quantifying the ion count in the extracted ion chromatogram (EIC) using the MassHunter software. Solubility was measured by comparing the total EIC of the sample diluted in saline vs. in pure DMSO. Each sample was measured in duplicates.
To test the solubility of each compound in aqueous solution, a 10 mm stock of each compound in pure DMSO was diluted in saline solution (0.9% sodium chloride in water) to a final concentration of either 100 µm or 1.3 mm. The samples were incubated at room temperature for 5 min and centrifuged to remove any precipitate. The supernatant was analyzed by liquid chromatography–mass spectrometry (LC-MS). To quantify solubility, the extracted ion count from samples diluted in saline was normalized to samples diluted in pure DMSO.

[4] = Serum stability, human serum; assay type: in vitro ADME; conditions: 25% human serum; for half-life at 70 µM: human, LC-MS, normalized to EIC at t = 0
[5] = design: method as in PMID 33997269; conditions: cited from earlier work

Compound | KD (dissociation constant) [1] | stability in mouse serum (detectable compound vs PBS) [2] | soluble compound present in saline relative to in pure DMSO ([3]; 1.3 mm in saline (0.9% NaCl), 10% DMSO) | soluble compound present in saline relative to in pure DMSO ([3]; 100 µm in saline (0.9% NaCl), 1% DMSO) | half-life at 70 µM [4] | stability in mouse serum [5] | remaining at 24 h ([4]; after 24 h of incubation, read-out: peptide still intact)
CC[C@@]1(O)C(=O)OCc2c1cc1n(c2=O)Cc2cc3ccccc3nc2-1 [CPT, camptothecin] | did not exhibit any affinity | no decline in detectable compound over 12 h | practically undetectable | 30% | – | – | –
CC(C)[C@@H](NC(=O)[C@@H](Cc1c[nH]cn1)NC(=O)CNC(=O)[C@@H](Cc1c[nH]c2ccccc12)NC(=O)[C@@H](CCCCN)NC(=O)[C@H](N)[C@H](C)O)C(=O)N[C@H](CC(N)=O)C(=O)N[C@H](CCCCN)C(=O)NCCCCCC(=O)N[C@@H](CS)C(N)=O [BTP-7-X-Cys] | – | – | – | – | 0.16 h | – | –
CC(C)[C@@H](NC(=O)[C@@H](Cc1c[nH]cn1)NC(=O)CNC(=O)[C@@H](Cc1c[nH]c2ccccc12)NC(=O)[C@@H](CCCCN)NC(=O)[C@H](N)[C@H](C)O)C(=O)N[C@H](CC(N)=O)C(=O)N[C@H](CCCCN)C(=O)NCCCCCC(N)=O [BTP-7-X] | – | – | – | – | 4.4 h | stable in mouse serum | ~40%
